Experimental findings from publication PMC7382147, “An effective UFLC–MS/MS method used to study pharmacokinetics of major constituents of Fukeqianjin formula in rat plasma” (Chinese Medicine, 2020) are described below.

As a reminder, the AUC(0-inf) is total exposure, with the tail of the curve extrapolated. High values mean high exposure, low ones low exposure. Usually AUC(0-t) stands for the area under the concentration-time curve up to a stated or last time point. The low end stands for less exposure, the high end for more exposure. By Cmax is commonly meant the peak of the concentration-time curve. Broadly, the half-life is the time in which the quantity being followed falls by half. A lower half-life goes with rapid decline. Broadly, the Tmax is the time from dosing to the highest level.

Data set [1] is described as follows: Pharmacokinetic study in rat plasma after oral administration of FKQJF extract (UFLC–MS/MS). It is filed as in vivo, Sprague-Dawley (SD) rats. Conditions: for AUC(0-inf) / AUC(0-t) / Cmax / half-life / MRT last / MRT inf / Tmax: Sprague-Dawley, oral FKQJF extract, single dose 3.2 g/kg, mean ± SD; for MRT last: read-out: MRT0→t; for MRT inf: read-out: MRT0→∞; for Tmax: read-out: Tmax. On the procedure:
(§1) Aliquots of 100 μL plasma samples were mixed with 10 μL I.S. samples (1 μg/mL, in MeOH), then added with 500 μL ACN, respectively, and vortexed for 5 min, centrifugated at 10,000 rpm for 10 min, the supernatants were transferred into clean vials and dried in a vacuum centrifugal concentrator at 1200 rpm, 37 °C. After that, 100 μL ACN was added and ultrasonic (frequency 40 kHz, power 250 W) extracted for 5 min to dissolve the dry residue, vortexed for 1 min and centrifugated at 10,000 rpm for 5 min, 1 μL of each final supernatant was injected into UFLC–MS/MS for analysis.
An 8050 UFLC–MS/MS system equipped with LC-30A binary pump, a SIL-30AC autosampler, a SPD-M30A PDA detector, a CTO-20AC column oven, and a 8050 triple quadrupole mass spectrometer with an electrospray ionization source (ESI) was applied to detect and quantify FKQJF compounds in plasma samples. Data were acquired and processed with the software LabSolution (Ver. 5.6).
A Kinetex XB-C18 HPLC column (100 × 2.1 mm, 2.6 μm) linked with an equivalent guard column was used for chromatographic separation. The aqueous phase contained 0.2% formic acid was used as mobile phase A, and organic phase ACN as mobile phase B. The gradient elution method using in this program was: 3–5 min, 28–31% B; 5–7 min, 31–34% B; 7–9 min, 34–65% B; 9–10 min, 65–95% B; 10–11.5 min, 95% B. The flow rate of mobile phase, column temperature and autosampler temperature was 0.4 mL/min, 30 °C and 4 °C, respectively. The injection volume of each sample was set as 1 μL. The main MS spectrum parameters were set as follows: the flow rate of drying gas (N2) was 10.0 L/min; the atomized gas was 3.0 L/min and the heating gas flow rate was 10.0 L/min. The main temperatures of interface, desolvation and heat block was 300 °C, 250 °C and 400 °C, respectively. And, the interface and detector voltage were 3 kV and 1.8 kV.
Rats were divided into a blank group and a FKQJF administration group (6 rats for each), and fasted for 24 h. Each rat of the administration group was given FKQJF extract suspension at a single dose of 3.2 g FKQJF/kg body weight through oral administration in parallel. Blood samples (0.25 mL) were gathered from the orbital venous plexus of each rat, with FKQJF group gathered at 14 serial timepoints (6 rats for each) as 0.083 h, 0.16 h, 0.33 h, 0.5 h, 0.75 h, 1.0 h, 1.5 h, 2 h, 3 h, 4 h, 6 h, 8 h, 12 h and 24 h after drug administration. The blood samples were centrifugated at 6000g for 10 min to isolate plasma and stored at − 20 °C for further analysis.
Data were analyzed using the Drug and Statistics (DAS) Software version 2.0 (DAS 2.0, Mathematical Pharmacology Professional Committee of China, Shanghai, China). The non-compartmental mode was applied to obtain the following PK parameters: area under the plasma concentration–time curve from time zero to the time of last quantifiable concentration (AUC0→t) and area under the plasma concentration–time curve to time infinity (AUC0→∞), the elimination half-life (t1/2), mean retention time to last sampling time (MRT0→t) and mean retention time to infinity (MRT0→∞). The maximum plasma concentration (Cmax) and the time to maximum concentration (Tmax) were observed directly from the concentration–time (C–T) curves and measured data. All data are presented as mean ± SD.

The nature of data set [2]: Ordinary stability of QC samples (room temperature for 8 h). Conditions: plasma QC, room temperature 8 h. It is filed as physicochemical, rat. On the procedure:
as §1
(§2) Six replicates of low, medium and high concentrations of quality control (QC) samples were used to verify the stabilities under different conditions including: place at room temperature for 8 h, freeze (− 20 °C) and thaw for three times, and store at − 20 °C for 20 days.

Data set [3] in a line: Freeze–thaw stability of QC samples (−20 °C, three times). In kind it is physicochemical, rat. Particulars: plasma QC, freeze (−20 °C) and thaw three times. Here is the method:
as §1, §2

Data set [4] is described as follows: Long-term stability of QC samples (−20 °C for 20 days). In kind it is physicochemical, rat. Conditions: plasma QC. Here is the method:
as §1, §2

The mark [5] stands for this setting: oral FKQJF extract 3.2 g/kg, post dose.

With `O=C(O)c1ccccc1O` [Analyte 8, salicylic acid], in data set [1], the AUC(0-inf) worked out at 2140 ± 168 ng·h/mL, the AUC(0-t) stood at 1800 ± 155 ng·h/mL, the concentration peaked (Cmax) at 433 ± 53.1 ng/mL and the half-life is 2.7 ± 0.54 h. Besides, in data set [1], the MRT last came to 2.88 ± 0.15 h, the MRT inf was 4.31 ± 0.67 h and the Tmax came to 1.67 ± 0.29 h. Besides, the “shape of the plasma concentration–time curve” value (shortened to “shape”) in data set [1] (oral FKQJF extract 3.2 g/kg) is “double-peaks”. In addition, the “Ordinary stability Mean” value in data set [2] (spiked 50 ng/mL) worked out at 95.42%. Besides, in data set [2] (spiked 250 ng/mL), the “Ordinary stability Mean” value is on record as 108.42%. In addition, the “Ordinary stability Mean” value in data set [2] (spiked 500 ng/mL) was determined as 103.60%. In addition, in data set [3] (spiked 50 ng/mL), the “Freeze–thaw stability Mean” value is 80.11%. The “Freeze–thaw stability Mean” value in data set [3] (spiked 250 ng/mL) is reported as 102.50%. The “Freeze–thaw stability Mean” value in data set [3] (spiked 500 ng/mL) was found to be 88.21%. Moreover, the “Long-term stability Mean” value in data set [4] (spiked 50 ng/mL) turned out to be 109.80%. Further, in data set [4] (spiked 250 ng/mL), the “Long-term stability Mean” value is 114.13%. For the same molecule, the “Long-term stability Mean” value in data set [4] (spiked 500 ng/mL) came to 87.97%.
Turning to `COc1cc2c(cc1O)CC[n+]1cc3c(OC)c(OC)ccc3cc1-2` [Analyte 9, jatrorrhizine], in data set [1], the AUC(0-inf) came to 2550 ± 277 ng·h/mL, the AUC(0-t) stood at 1090 ± 110 ng·h/mL, the Cmax is 270 ± 24 ng/mL and the half-life was 9.65 ± 4.91 h. Further, in data set [1], the MRT last amounted to 8.96 ± 0.4 h, the MRT inf stood at 10.5 ± 4.72 h and the Tmax was 1.83 ± 0.29 h. Further, in data set [2] (spiked 25 ng/mL), the “Ordinary stability Mean” value worked out at 104.79%. The “Ordinary stability Mean” value in data set [2] (spiked 75 ng/mL) is listed as 93.01%. In addition, the “Ordinary stability Mean” value in data set [2] (spiked 150 ng/mL) is recorded as 92.51%. In data set [3] (spiked 25 ng/mL), the “Freeze–thaw stability Mean” value was found to be 86.77%. Further, the “Freeze–thaw stability Mean” value in data set [3] (spiked 150 ng/mL) is 113.07%. Also, the “Long-term stability Mean” value in data set [4] (spiked 25 ng/mL) is recorded as 80.63%. Further, in data set [4] (spiked 75 ng/mL), the “Long-term stability Mean” value is 91.97%. Besides, the “Long-term stability Mean” value in data set [4] (spiked 150 ng/mL) stood at 98.06%.
Consider `COc1ccc(-c2coc3cc(O[C@@H]4O[C@H](CO)[C@@H](O)[C@H](O)[C@H]4O)ccc3c2=O)cc1` [Analyte 10, ononin], for which, in data set [1], the AUC(0-inf) was determined as 375 ± 153 ng·h/mL, the exposure AUC(0-t) came to 370 ± 156 ng·h/mL, the Cmax was 192 ± 32 ng/mL and the half-life was 1.64 ± 0.52 h. Further, in data set [1], the MRT last amounted to 2.54 ± 1.12 h, the MRT inf worked out at 3.13 ± 1.66 h and the Tmax worked out at 1.33 ± 0.58 h. Moreover, the “shape” value in data set [1] (oral FKQJF extract 3.2 g/kg) is “double-peaks”. Besides, in data set [2] (spiked 50 ng/mL), the “Ordinary stability Mean” value stood at 95.59%. For the same molecule, the “Ordinary stability Mean” value in data set [2] (spiked 250 ng/mL) is recorded as 82.57%. Moreover, the “Ordinary stability Mean” value in data set [2] (spiked 500 ng/mL) is given as 103.90%. Also, the “Freeze–thaw stability Mean” value in data set [3] (spiked 50 ng/mL) is recorded as 118.81%. For the same molecule, in data set [3] (spiked 250 ng/mL), the “Freeze–thaw stability Mean” value came out at 102.95%. In addition, in data set [3] (spiked 500 ng/mL), the “Freeze–thaw stability Mean” value turned out to be 81.68%. Further, the “Long-term stability Mean” value in data set [4] (spiked 50 ng/mL) came to 95.03%. Moreover, in data set [4] (spiked 250 ng/mL), the “Long-term stability Mean” value is recorded as 81.88%. The “Long-term stability Mean” value in data set [4] (spiked 500 ng/mL) amounted to 107.95%.
In data set [1], `COc1cc2c(cc1OC)-c1cc3ccc(OC)c(OC)c3c[n+]1CC2` [Analyte 11, palmatine] showed an area under the curve AUC(0-inf) of 1640 ± 155 ng·h/mL, an AUC(0-t) of 691 ± 93.3 ng·h/mL, a peak concentration (Cmax) of 134 ± 31.8 ng/mL and a half-life of 9.16 ± 2.09 h. In data set [1], the MRT last worked out at 11 ± 0.99 h, the MRT inf was found to be 14.2 ± 8.89 h and the Tmax turned out to be 1.67 ± 0.29 h. Further, the “Ordinary stability Mean” value in data set [2] (spiked 5 ng/mL) is reported as 92.36%. For the same molecule, the “Ordinary stability Mean” value in data set [2] (spiked 100 ng/mL) is given as 81.64%. In addition, the “Freeze–thaw stability Mean” value in data set [3] (spiked 5 ng/mL) is reported as 94.51%. For the same molecule, the “Freeze–thaw stability Mean” value in data set [3] (spiked 100 ng/mL) was found to be 98.74%. In addition, in data set [4] (spiked 5 ng/mL), the “Long-term stability Mean” value stood at 87.02%. Besides, the “Long-term stability Mean” value in data set [4] (spiked 100 ng/mL) stood at 101.38%. The “Long-term stability Mean” value in data set [4] (spiked 200 ng/mL) is 89.65%.
In data set [1], `C=C1CC[C@@H]2[C@](C)(CO)[C@H](O)CC[C@@]2(C)[C@@H]1C/C=C1/C(=O)OC[C@H]1O` [Analyte 12, andrographolide] gave an AUC(0-inf) of 480 ± 71.9 ng·h/mL, an AUC(0-t) of 442 ± 59.5 ng·h/mL, a Cmax of 186 ± 19 ng/mL and a half-life of 1.79 ± 0.2 h. Besides, in data set [1], the MRT last was 2.45 ± 0.19 h, the MRT inf was 3.1 ± 0.33 h and the Tmax came out at 1 ± 0.43 h. Further, in data set [1] (oral FKQJF extract 3.2 g/kg), the “shape” value was “double-peaks”. Further, in data set [1] (setting [5]), the “time of first peak of the concentration–time curve” value was 0 to 1 h and the “time of second peak of the concentration–time curve” value was 1.5 to 3 h. Besides, the “Ordinary stability Mean” value in data set [2] (spiked 60 ng/mL) is given as 115.56%. Besides, the “Ordinary stability Mean” value in data set [2] (spiked 300 ng/mL) amounted to 107.50%. The “Ordinary stability Mean” value in data set [2] (spiked 600 ng/mL) is reported as 85.93%. The “Freeze–thaw stability Mean” value in data set [3] (spiked 60 ng/mL) was found to be 84.52%. In addition, the “Freeze–thaw stability Mean” value in data set [3] (spiked 300 ng/mL) worked out at 86.83%. Also, in data set [3] (spiked 600 ng/mL), the “Freeze–thaw stability Mean” value is 93.19%. Besides, in data set [4] (spiked 60 ng/mL), the “Long-term stability Mean” value turned out to be 115.89%. The “Long-term stability Mean” value in data set [4] (spiked 300 ng/mL) worked out at 94.37%. Also, the “Long-term stability Mean” value in data set [4] (spiked 600 ng/mL) is reported as 96.64%.
Take `COc1ccc2cc3[n+](cc2c1OC)CCc1cc2c(cc1-3)OCO2` [Analyte 13, berberine]: in data set [1], the AUC(0-inf) was determined as 5630 ± 2430 ng·h/mL, the AUC(0-t) was found to be 3800 ± 171 ng·h/mL, the peak level (Cmax) was 619 ± 84.6 ng/mL and the half-life was 38.8 ± 53.2 h. Further, in data set [1], the MRT last was 8.04 ± 0.88 h, the MRT inf came to 39 ± 46.5 h and the Tmax amounted to 8 h. For the same molecule, in data set [1] (oral FKQJF extract 3.2 g/kg), the “shape” value was “double-peaks”. Also, the “Ordinary stability Mean” value in data set [2] (spiked 5 ng/mL) worked out at 84.57%. Further, the “Ordinary stability Mean” value in data set [2] (spiked 100 ng/mL) was found to be 103.56%. Also, the “Ordinary stability Mean” value in data set [2] (spiked 200 ng/mL) was 113.97%. For the same molecule, the “Freeze–thaw stability Mean” value in data set [3] (spiked 5 ng/mL) amounted to 97.72%. Also, in data set [3] (spiked 100 ng/mL), the “Freeze–thaw stability Mean” value came to 110.44%. Also, the “Freeze–thaw stability Mean” value in data set [3] (spiked 200 ng/mL) is recorded as 104.87%. In addition, the “Long-term stability Mean” value in data set [4] (spiked 5 ng/mL) was 102.75%. Moreover, the “Long-term stability Mean” value in data set [4] (spiked 100 ng/mL) is recorded as 81.78%. In data set [4] (spiked 200 ng/mL), the “Long-term stability Mean” value amounted to 114.48%.
